Assay: break through pressure or vacuum level after exhaustive drying of lock formulations in simulated silicone catheter tubing
Assay type: physicochemical
Conditions: excipient at approximately 1% by weight
Description: FIG. 1 is a view of a sphygmomanometer 10 connected to a syringe 12. The sphygmomanometer 10 includes a gauge 14 with a visual display 16 to measure the pressure or vacuum level. The sphygmomanometer 10 and the syringe 12 were used to measure the break through pressure or vacuum level.
Long silicone rubber commercial catheter extension tubing segments spliced together, or a single small bore with a 1.5 mm inner diameter clear, and very soft laboratory silicone rubber tubing of about 15 inch in length were used for evaluation. Formulations of 30% weight per volume (w/v) ethanol and 4% weight per weight (w/w) tri-sodium citrate with candidate biocompatible excipients were prepared and charged into the lumens of simulated catheter tubings and capped with solid plugs. The samples were first dried near a de-humidifier for about 24 hours to allow evaporation of most ethanol before being placed into a clear polycarbonate drying column connected in series with a large Drierite® desiccant column. The columns were also fitted with a gas flow meter and a diaphragm gas pump to provide closed loop gas circulation at about 4 liter per minute (min-1). […] Both the pressure (+) or vacuum (−) levels to cause the liquid or solid plug movement were measured when subjected to actuation movements from a small air filled syringe 12 connected to a sphygmomanometer 10. […]

effectiveness of excipient in words: conditionally acceptable | time free flowing: greater than 7 days
Compound: OCC(O)CO [glycerol]
